Source: patent US11000033B2, “Ketone or oxime compound, and herbicide” (NISSAN CHEMICAL CORPORATION, priority 2014, dated 2021)

Tests used:
Assay type in all cases: in vivo
[1] = tested on: Echinochloa oryzacola Vasing.; assay: Test Example 1: herbicidal activity, application before weed generation in submerged conditions (symbol A); conditions: application herbicide amount 320 g/ha
Method in brief: (§1)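 Greenhouse growth at 25–30 °C lasted 3 weeks after treatment, when each weed was graded 0–5 by herbicidal ratio. Treatment was a diluted emulsion applied to the water surface of 4 cm-submerged alluvial soil on the sowing day.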

Scirpus juncoides = assay: Test Example 1: herbicidal activity, application before weed generation in submerged conditions (symbol B); conditions: application herbicide amount 320 g/ha
Method in brief: as §1

transplanted rice plant = assay: Test Example 1: effect on crop, application before weed generation in submerged conditions (symbol a); conditions: application herbicide amount 320 g/ha
Method in brief: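 Rice at 2.5 leaf stage transplanted into submerged soil (4 cm depth) sown with three weed species; herbicide applied before weed emergence.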

Monochoria vaginalis = assay: Test Example 2: herbicidal activity, application during weed generation in submerged conditions (symbol C); conditions: Table 23; application herbicide amount 320 g/ha; grade 0-5 by criteria of Test Example 1
Method in brief: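 Steps: fill pots with alluvial soil; add water to 4 cm depth; co-sow the three weeds; grow at 25° C. to 30° C. under glass; at 1–2 leaves, dose the floodwater with diluted emulsion; rate damage visually after 3 weeks.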

[2] = tested on: directly sowed rice plant; assay: Test Example 3: effect on crop by foliage application, Wagner pot (symbol b); conditions: application herbicide amount 320 g/ha
Method in brief: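 Wagner pot (1/10000 are), alluvial soil, submerged 0.1–0.5 cm; sown E. crus-galli var. crus-galli, L. chinensis, C. difformis, rice; greenhouse 25–30 °C.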

Avena fatua = assay: Test Example 4: herbicidal effect by soil treatment (symbol I); conditions: application herbicide amount 320 g/ha
Method in brief: (§2)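 Seeds were sown in sterilized diluvial soil, covered with about 1.5 cm of soil, and the soil surface was sprayed with a water-diluted emulsion of the compound at a predetermined rate. Plants grew in a greenhouse at 25° C. to 30° C.; effects were scored visually 3 weeks after application.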

Alopecurus myosuroides = assay: Test Example 4: herbicidal effect by soil treatment (symbol J); conditions: application herbicide amount 320 g/ha
Method in brief: as §2

Abutilon theophrasti = assay: Test Example 4: herbicidal effect by soil treatment (symbol M); conditions: application herbicide amount 320 g/ha
Method in brief: as §2

Amaranthus retroflexus = assay: Test Example 4: herbicidal effect by soil treatment (symbol N); conditions: application herbicide amount 320 g/ha
Method in brief: as §2

Veronica persica = assay: Test Example 4: herbicidal effect by soil treatment (symbol R); conditions: application herbicide amount 320 g/ha
Method in brief: as §2

soybean = assay: Test Example 4: effect on crop by soil treatment (symbol d); conditions: application herbicide amount 320 g/ha
Method in brief: (§3)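 Crop seed is sown in spots together with several weed species in a box of sterilized diluvial soil. It is covered by about 1.5 cm of soil and kept in a greenhouse held between 25° C. and 30° C.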

beet = assay: Test Example 4: effect on crop by soil treatment (symbol f); conditions: application herbicide amount 320 g/ha
Method in brief: as §3

rapeseed = assay: Test Example 4: effect on crop by soil treatment (symbol g); conditions: application herbicide amount 320 g/ha
Method in brief: as §3

Digitaria ciliaris = assay: Test Example 5: herbicidal effect by foliage application, plastic box (symbol F); conditions: 320 g/ha, 3 weeks after application
Method in brief: (§4)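 Post-emergence spray; diluvial soil (sterilized), ~1.5 cm seed cover; greenhouse 25–30° C; 14-day-old plants; water-diluted emulsion at predetermined dose; visual score at 3 wk post-treatment.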

[3] = tested on: Echinochloa crus-galli var. crus-galli; assay: Test Example 5: herbicidal effect by foliage application, plastic box (symbol H); conditions: 320 g/ha, 3 weeks after application
Method in brief: as §4

Row | Structure (SMILES) | Herbicidal effect grade, A: Echinochloa oryzacola Vasing. [1] | Herbicidal effect grade, B: Scirpus juncoides (Scirpus juncoides) | Effect grade on crop, a: transplanted rice plant (transplanted rice plant) | Herbicidal effect grade, C: Monochoria vaginalis (Monochoria vaginalis) | effect on crop b (directly sowed rice plant), grade 0-5 [2] | I: Avena fatua, herbicidal effect grade (Avena fatua) | J: Alopecurus myosuroides, herbicidal effect grade (Alopecurus myosuroides) | M: Abutilon theophrasti, herbicidal effect grade (Abutilon theophrasti) | N: Amaranthus retroflexus, herbicidal effect grade (Amaranthus retroflexus) | R: Veronica persica, herbicidal effect grade (Veronica persica) | d: soybean, effect on crop grade (soybean) | f: beet, effect on crop grade (beet) | g: rapeseed, effect on crop grade (rapeseed) | F: Digitaria ciliaris, herbicidal effect grade (Digitaria ciliaris) | H: Echinochloa crus-galli var. crus-galli, herbicidal effect grade [3]
1 | CCC(C)C(=O)CC1CC(O)=C(c2c(C)cc(C)cc2C)C1=O (stereo not drawn) [2-024] | 2 (Herbicidal ratio of 20% or higher and lower than 40%) | 0 (Herbicidal ratio of 5% or lower (almost no effect)) | 4 (Herbicidal ratio of 70% or higher and lower than 90%) | 0 (Herbicidal ratio of 5% or lower (almost no effect)) | 5 (Herbicidal ratio of 90% or more (almost completely withered)) | 0 (Herbicidal ratio of 5% or lower (almost no effect)) | 0 (Herbicidal ratio of 5% or lower (almost no effect)) | 0 (Herbicidal ratio of 5% or lower (almost no effect)) | 0 (Herbicidal ratio of 5% or lower (almost no effect)) | 0 (Herbicidal ratio of 5% or lower (almost no effect)) | 0 (Herbicidal ratio of 5% or lower (almost no effect)) | 0 (Herbicidal ratio of 5% or lower (almost no effect)) | 0 (Herbicidal ratio of 5% or lower (almost no effect)) | 4 (Herbicidal ratio of 70% or higher and lower than 90%) | 5 (Herbicidal ratio of 90% or more (almost completely withered))
2 | CCC(=O)CC1CC(O)=C(c2c(C)cc(C)cc2C)C1=O (stereo not drawn) [2-006] | 5 (Herbicidal ratio of 90% or more (almost completely withered)) | 2 (Herbicidal ratio of 20% or higher and lower than 40%) | 3 (Herbicidal ratio of 40% or higher and lower than 70%) | 2 (Herbicidal ratio of 20% or higher and lower than 40%) | 5 (Herbicidal ratio of 90% or more (almost completely withered)) | 3 (Herbicidal ratio of 40% or higher and lower than 70%) | 5 (Herbicidal ratio of 90% or more (almost completely withered)) | 4 (Herbicidal ratio of 70% or higher and lower than 90%) | 0 (Herbicidal ratio of 5% or lower (almost no effect)) | 0 (Herbicidal ratio of 5% or lower (almost no effect)) | 0 (Herbicidal ratio of 5% or lower (almost no effect)) | 0 (Herbicidal ratio of 5% or lower (almost no effect)) | 4 (Herbicidal ratio of 70% or higher and lower than 90%) | 3 (Herbicidal ratio of 40% or higher and lower than 70%) | 4 (Herbicidal ratio of 70% or higher and lower than 90%)
3 | CON=C(C)CC1CC(O)=C(c2c(C)cc(-c3ccc(Cl)cc3)cc2C)C1=O (mixture of isomers) [6-029] | 5 (Herbicidal ratio of 90% or more (almost completely withered)) | 3 (Herbicidal ratio of 40% or higher and lower than 70%) | 5 (Herbicidal ratio of 90% or more (almost completely withered)) | 2 (Herbicidal ratio of 20% or higher and lower than 40%) | 5 (Herbicidal ratio of 90% or more (almost completely withered)) | 4 (Herbicidal ratio of 70% or higher and lower than 90%) | 5 (Herbicidal ratio of 90% or more (almost completely withered)) | 0 (Herbicidal ratio of 5% or lower (almost no effect)) | 0 (Herbicidal ratio of 5% or lower (almost no effect)) | 4 (Herbicidal ratio of 70% or higher and lower than 90%) | 0 (Herbicidal ratio of 5% or lower (almost no effect)) | 0 (Herbicidal ratio of 5% or lower (almost no effect)) | 2 (Herbicidal ratio of 20% or higher and lower than 40%) | 5 (Herbicidal ratio of 90% or more (almost completely withered)) | 5 (Herbicidal ratio of 90% or more (almost completely withered))
4 | CON=CC1CC(O)=C(c2c(C)cc(C)cc2C)C1=O (mixture of isomers) [3-001] | 0 (Herbicidal ratio of 5% or lower (almost no effect)) | 0 (Herbicidal ratio of 5% or lower (almost no effect)) | 0 (Herbicidal ratio of 5% or lower (almost no effect)) | 0 (Herbicidal ratio of 5% or lower (almost no effect)) | 2 (Herbicidal ratio of 20% or higher and lower than 40%) | 0 (Herbicidal ratio of 5% or lower (almost no effect)) | 1 (Herbicidal ratio of 5% or higher and lower than 20%) | 0 (Herbicidal ratio of 5% or lower (almost no effect)) | 0 (Herbicidal ratio of 5% or lower (almost no effect)) | 0 (Herbicidal ratio of 5% or lower (almost no effect)) | 0 (Herbicidal ratio of 5% or lower (almost no effect)) | 0 (Herbicidal ratio of 5% or lower (almost no effect)) | 0 (Herbicidal ratio of 5% or lower (almost no effect)) | 4 (Herbicidal ratio of 70% or higher and lower than 90%) | 4 (Herbicidal ratio of 70% or higher and lower than 90%)
5 | CON=C(C)CC1CC(O)=C(c2c(C)cc(-c3ccc(Cl)nc3)cc2C)C1=O (mixture of isomers) [6-035] | 5 (Herbicidal ratio of 90% or more (almost completely withered)) | 4 (Herbicidal ratio of 70% or higher and lower than 90%) | 5 (Herbicidal ratio of 90% or more (almost completely withered)) | 0 (Herbicidal ratio of 5% or lower (almost no effect)) | 5 (Herbicidal ratio of 90% or more (almost completely withered)) | 3 (Herbicidal ratio of 40% or higher and lower than 70%) | 4 (Herbicidal ratio of 70% or higher and lower than 90%) | 0 (Herbicidal ratio of 5% or lower (almost no effect)) | 0 (Herbicidal ratio of 5% or lower (almost no effect)) | 3 (Herbicidal ratio of 40% or higher and lower than 70%) | 0 (Herbicidal ratio of 5% or lower (almost no effect)) | 0 (Herbicidal ratio of 5% or lower (almost no effect)) | 0 (Herbicidal ratio of 5% or lower (almost no effect)) | 5 (Herbicidal ratio of 90% or more (almost completely withered)) | 5 (Herbicidal ratio of 90% or more (almost completely withered))
